These results are taken from patent US10722478B2, “Methods and compositions for treating fatigue associated with disordered sleep using very low dose cyclobenzaprine” (Tonix Pharma Holdings Limited, priority 2010, dated 2020).

The test system of experiment [1] is person diagnosed with multiple sclerosis. The following applies: 2 mg then 4 mg at bedtime. On the procedure:
A person was diagnosed with multiple sclerosis three years ago. […] However, they have noted that throughout the day they have very low energy levels. Their capacity for physical and mental work has declined to the point where they are unable to function at work. They report getting 6 to 8 hours of sleep each night but feels unrefreshed in the morning. […] They began taking cyclobenzaprine initially at a dose of 2 mg at bedtime. Their doctor increased the dose to 4 mg at bedtime. […] Their doctor asks them to assess their level of fatigue on a scale of 1 to 10 before and after cyclobenzaprine treatment.

The subject of experiment [2] is person with traumatic brain injury. The following applies: 5 mg at bedtime; within three weeks. On the procedure: A person survived a serious motor vehicle accident with closed head trauma. They underwent six months of physical rehabilitation. […] Because of the spasticity, the neurologist recommended six months of additional physical rehabilitation. […], characterized by both difficulty falling asleep and early-morning awakening. Their neurologist prescribed cyclobenzaprine at a dose of 5 mg at bedtime.

Experiment [3] concerns FM patients. The settings on record: response threshold CAPA2+A3(Norm)≤33%; ITT, LOCF; vs. 33% with placebo, p=0.019.
Procedure: Therefore, an analysis of sleep EEC CAP was performed that measured subtypes CAP A1, CAP A2, and CAP A3 and Total CAP (or CAP A1+A2+A3). Subtype CAP A1 is associated with sleep maintenance or least sleep instability, and subtypes CAP A2 and A3 are associated with moderate to prominent increases in sleep instability.
Because CAP A2 and A3 are most closely associated with sleep instability^26,27, the sum of CAPA2+CAPA3 rates (CAPA2+A3) was used as an indicator of disordered sleep. CAPA2+A3 was normalized (CAPA2+A3(Norm)) by dividing CAPA2+A3 by the total CAP rate (CAPtotal=CAPA1+CAPA2+CAPA3 rates=CAPA1+A2+A3) and expressed as a percentage. Therefore, CAPA2+A3(Norm)=100*CAPA2+A3/CAPA1+A2+A3 and this reflects the percentage of total CAP that is associated with sleep instability.
To determine whether patients experienced nights with a potential CAP response to treatment, it was necessary to determine an empirical threshold below which CAPA2+A3(Norm) values reflect a night of relatively stable sleep for this population. To determine a threshold for CAPA2+A3(Norm) that could be informative for a potential treatment response, the study CAP data were then evaluated by considering a range of cutoff values for CAPA2+A3(Norm) from ≤10% to ≤50%.
Data were coded such that improvements were positive.
Experiment [4] deals with fibromyalgia patients. The settings on record: 10 to 40 mg over a 12-week period; cited from earlier work.

In the case of `CN(C)CCC=C1c2ccccc2C=Cc2ccccc21` [cyclobenzaprine, 3-(5H-dibenzo[a,d]cyclohepten-5-ylidene)-N,N-dimethyl-1-propanamine], in experiment [1] (with each dose), the “level of energy during the day” value is given as “increased” and the quality of sleep result is reported as “improved”. For the same molecule, the “level of fatigue on a scale of 1 to 10 after treatment” value in experiment [1] (before treatment 9/10) was 3/10. Further, in experiment [2], the “level of energy and concentration” value is recorded as “markedly better”; the sleep entry is on record as “improved substantially”. Further, the “percentage of patients with increased nights of CAP response while on treatment” value in experiment [3] was 72%. Besides, in experiment [4], the muscle tightness entry is listed as “reduction”, the pain score entry is “significantly improved”, the quality of sleep result was “significantly improved” and the “total number of tender points” value was “reduction”.
